Where only a bound is given, the exact number is not on record here.

Sequence of CB1 (CNR1) (P21554 whole entry): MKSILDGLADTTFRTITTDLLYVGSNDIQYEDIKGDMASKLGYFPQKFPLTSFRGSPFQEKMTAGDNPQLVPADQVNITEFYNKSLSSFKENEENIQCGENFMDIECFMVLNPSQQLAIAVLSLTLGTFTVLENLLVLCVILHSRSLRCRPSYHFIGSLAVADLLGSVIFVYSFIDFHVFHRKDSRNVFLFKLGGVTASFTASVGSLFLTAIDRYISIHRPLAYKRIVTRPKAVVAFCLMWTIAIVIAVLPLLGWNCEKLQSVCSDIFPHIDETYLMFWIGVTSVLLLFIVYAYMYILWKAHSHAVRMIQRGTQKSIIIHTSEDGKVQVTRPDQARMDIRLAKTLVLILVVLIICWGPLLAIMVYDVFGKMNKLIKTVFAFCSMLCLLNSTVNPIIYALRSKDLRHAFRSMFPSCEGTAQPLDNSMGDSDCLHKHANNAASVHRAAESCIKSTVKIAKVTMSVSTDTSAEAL

The target of this assay is CB1 (CNR1) (Homo sapiens, UniProt P21554). The assay is described as follows: cAMP CNR1 Hunter cell line antagonist assay (CB1 assay). The class given is cell-based. The note with it: antagonist mode, cAMP CNR1 Hunter cells, EC80 agonist; read-out: CB1 assay, Efficacy (IC50). Here is the method:
cAMP CNR1 Hunter cell line (Eurofins DiscoveryX) were expanded from freezer stocks and seeded in a total volume of 20 μL into white walled, 384-well microplates and incubated at 37° C. for the appropriate time prior to testing. For antagonist determination, cell media was aspirated from cells and replaced with 10 μL 1:1 HBSS/Hepes:cAMP XS+Ab reagent. 5 μL of 4× compound was added to the cells and incubated at 37° C. for 30 minutes. 5 μL of 4× EC80 agonist was added to cells and incubated at 37° C. for 30 minutes. After appropriate compound incubation, assay signal was generated through incubation with 20 μL cAMP XS+ED/CL lysis cocktail for one hour followed by incubation with 20 μL cAMP XS+EA reagent for three hours at room temperature. Microplates were read following signal generation with a PerkinElmer Envision™ instrument for chemiluminescent signal detection. Compound activity (IC50) was analyzed using CBIS data analysis suite (ChemInnovation, CA).
A word on the IC50: it is the concentration needed to halve the response being measured. Consider `Cc1ccc(NS(=O)(=O)c2cc(S(C)(=O)=O)cc3c2OCC(=O)N3)cc1Cl` [BC19486], for which the IC50 is not below 25 µM.
Next, `CCc1cccc(NS(=O)(=O)c2cc(S(C)(=O)=O)cc3c2OCC(=O)N3)c1` [BC19487]: not below 25 µM; `Cc1ccc(NS(=O)(=O)c2cc(S(C)(=O)=O)cc3c2OCC(=O)N3)cc1` [BC19488]: not below 25 µM; `Cc1c(Cl)cc2c(c1S(=O)(=O)Nc1ccc(F)c(F)c1)OCC(=O)N2` [BC19489]: not below 25 µM.
As to `Cc1c(Cl)cc2c(c1S(=O)(=O)Nc1ccc(OC(F)(F)F)cc1)OCC(=O)N2` [BC19490], the 50% inhibitory concentration (IC50) was not below 25 µM.
Next, `CCS(=O)(=O)c1cc2c(c(S(=O)(=O)Nc3ccc(Cl)cc3)c1)OCC(=O)N2` [BC19491]: not below 25 µM; `CCc1ccc(NS(=O)(=O)c2cc(S(=O)(=O)CC)cc3c2OCC(=O)N3)cc1` [BC19492]: not below 25 µM.
The value for `CCS(=O)(=O)c1cc2c(c(S(=O)(=O)Nc3ccc(C(C)C)cc3)c1)OCC(=O)N2` [BC19493] was not below 25 µM; that for `CCS(=O)(=O)c1cc2c(c(S(=O)(=O)Nc3ccc(C)c(Cl)c3)c1)OCC(=O)N2` [BC19544] was not below 25 µM.
For `CCS(=O)(=O)c1cc2c(c(S(=O)(=O)Nc3ccc(F)cc3F)c1)OCC(=O)N2` [BC19545], the IC50 is not below 25 µM.
`CCS(=O)(=O)c1cc2c(c(S(=O)(=O)Nc3ccc(C)cc3)c1)OCC(=O)N2` [BC19546]: the IC50 was not below 25 µM.
Next, `CCS(=O)(=O)c1cc2c(c(S(=O)(=O)Nc3ccc(OC)c(Cl)c3)c1)OCC(=O)N2` [BC19547]: not below 25 µM; `CCS(=O)(=O)c1cc2c(c(S(=O)(=O)Nc3ccc(C#N)cc3)c1)OCC(=O)N2` [BC19548]: not below 25 µM.
Next, `O=C1NCCOc2c1cc(Br)cc2S(=O)(=O)Nc1ccc(F)cc1` [BC19549]: not below 25 µM; `O=C1NCCOc2c1cc(Br)cc2S(=O)(=O)Nc1ccc(OC(F)(F)F)cc1` [BC19550]: not below 25 µM; `O=C1NCCOc2c1cc(Br)cc2S(=O)(=O)Nc1ccc(F)c(F)c1` [BC19551]: not below 25 µM.
The value for `Cc1ccc(NS(=O)(=O)c2cc(Br)cc3c2OCCNC3=O)cc1F` [BC19552] was not below 25 µM.
For `O=C1NCCOc2c1cc(Br)cc2S(=O)(=O)Nc1ccccc1` [BC19553], the IC50 is not below 25 µM.
The value for `O=C1NCCOc2c1cc(Br)cc2S(=O)(=O)Nc1ccc(Cl)cc1` [BC19603] was not below 25 µM; that for `CCc1ccc(NS(=O)(=O)c2cc(Br)cc3c2OCCNC3=O)cc1` [BC19604] was 1 to 25 µM.
The value for `CC(C)c1ccc(NS(=O)(=O)c2cc(Br)cc3c2OCCNC3=O)cc1` [BC19605] was not below 25 µM; that for `COc1ccc(NS(=O)(=O)c2cc(Br)cc3c2OCCNC3=O)cc1` [BC19606] was not below 25 µM.
For `Cc1ccc(NS(=O)(=O)c2cc(Br)cc3c2OCCNC3=O)cc1Cl` [BC19607], the IC50 was 1 to 25 µM.
In the case of `O=C1NCCOc2c1cc(Br)cc2S(=O)(=O)Nc1ccc(F)cc1F` [BC19608], the half-maximal inhibitory concentration (IC50) was not below 25 µM.
Next, `CCc1cccc(NS(=O)(=O)c2cc(Br)cc3c2OCCNC3=O)c1` [BC19609]: 1 to 25 µM; `O=C1NCCOc2c1cc(Br)cc2S(=O)(=O)Nc1cccc(F)c1` [BC19610]: 1 to 25 µM; `O=C1NCCOc2c1cc(Br)cc2S(=O)(=O)Nc1cccc(Cl)c1` [BC19611]: not below 25 µM.
The value for `Cc1ccc(NS(=O)(=O)c2cc(Br)cc3c2OCCNC3=O)cc1` [BC19612] was not below 25 µM.
Next, `O=C1NCCOc2c1cc(Br)cc2S(=O)(=O)Nc1ccc(F)cc1Cl` [BC19613]: not below 25 µM.
`COc1ccc(NS(=O)(=O)c2cc(Br)cc3c2OCCNC3=O)cc1Cl` [BC19614]: the half-inhibitory concentration (IC50) is not below 25 µM.
The value for `N#Cc1ccc(NS(=O)(=O)c2cc(Br)cc3c2OCCNC3=O)cc1` [BC19615] was not below 25 µM; that for `O=C1CCOc2c(cc(Br)cc2S(=O)(=O)Nc2ccc(OC(F)(F)F)cc2)N1` [BC19648] was not below 25 µM; that for `O=C1CCOc2c(cc(Br)cc2S(=O)(=O)Nc2cccc(F)c2)N1` [BC19649] was not below 25 µM.
For `O=C1CCOc2c(cc(Br)cc2S(=O)(=O)Nc2cccc(Cl)c2)N1` [BC19650], the half-maximal inhibitory concentration (IC50) is not below 25 µM.
Next, `Cc1ccc(NS(=O)(=O)c2cc(Br)cc3c2OCCC(=O)N3)cc1Cl` [BC19651]: not below 25 µM; `O=C1CCOc2cc(S(=O)(=O)Nc3ccc(OC(F)(F)F)cc3)c(Br)cc2N1` [BC19652]: not below 25 µM; `Cc1ccc(NS(=O)(=O)c2cc3c(cc2Br)NC(=O)CCO3)cc1F` [BC19653]: not below 25 µM.
The value for `O=C1CCOc2cc(S(=O)(=O)Nc3cccc(F)c3)c(Br)cc2N1` [BC19654] was not below 25 µM; that for `O=C1CCOc2cc(S(=O)(=O)Nc3cccc(Cl)c3)c(Br)cc2N1` [BC19655] was not below 25 µM.
Next, `O=C1CCOc2cc(S(=O)(=O)Nc3ccc(Cl)cc3)c(Br)cc2N1` [BC19656]: not below 25 µM; `CCc1cccc(NS(=O)(=O)c2cc3c(cc2Br)NC(=O)CCO3)c1` [BC19657]: not below 25 µM.
Consider `O=C1CCOc2cc(S(=O)(=O)Nc3ccc(F)cc3Cl)c(Br)cc2N1` [BC19658], for which the IC50 was not below 25 µM.
As for `Cc1ccc(NS(=O)(=O)c2cc3c(cc2Br)NC(=O)CCO3)cc1Cl` [BC19659], the IC50 was not below 25 µM.
Regarding `O=C1CCOc2cc(S(=O)(=O)Nc3ccc(F)cc3)c(Br)cc2N1` [BC19660], the half-maximal inhibitory concentration (IC50) is not below 25 µM.
The value for `Cc1ccc(NS(=O)(=O)c2cc3c(cc2Br)NC(=O)CCO3)cc1` [BC19661] was less than 1 µM.
Consider `O=C1CCOc2c(cc(Br)cc2S(=O)(=O)Nc2ccc(Cl)cc2)N1` [BC19685], for which the IC50 was not below 25 µM.
The value for `CCc1ccc(NS(=O)(=O)c2cc(Br)cc3c2OCCC(=O)N3)cc1` [BC19686] was 1 to 25 µM.
Take `CC(C)c1ccc(NS(=O)(=O)c2cc(Br)cc3c2OCCC(=O)N3)cc1` [BC19687]: the IC50 was not below 25 µM.
Take `COc1ccc(NS(=O)(=O)c2cc(Br)cc3c2OCCC(=O)N3)cc1Cl` [BC19688]: the half-inhibitory concentration (IC50) is 1 to 25 µM.
The value for `O=C1CCOc2cc(S(=O)(=O)Nc3ccccc3)c(Br)cc2N1` [BC19689] was not below 25 µM; that for `CCc1ccc(NS(=O)(=O)c2cc3c(cc2Br)NC(=O)CCO3)cc1` [BC19690] was less than 1 µM.
Next, `CC(C)c1ccc(NS(=O)(=O)c2cc3c(cc2Br)NC(=O)CCO3)cc1` [BC19691]: 1 to 25 µM; `COc1ccc(NS(=O)(=O)c2cc3c(cc2Br)NC(=O)CCO3)cc1` [BC19692]: less than 1 µM.
Next, `O=C1CCOc2cc(S(=O)(=O)Nc3ccc(F)cc3F)c(Br)cc2N1` [BC19693]: 1 to 25 µM; `COc1ccc(NS(=O)(=O)c2cc3c(cc2Br)NC(=O)CCO3)cc1Cl` [BC19694]: 1 to 25 µM; `N#Cc1ccc(NS(=O)(=O)c2cc3c(cc2Br)NC(=O)CCO3)cc1` [BC19695]: not below 25 µM.
`CC1Oc2cc(S(=O)(=O)Nc3ccc(Cl)cc3)c(Cl)cc2NC1=O` (centres unmarked) [BC19696]: the IC50 is 1 to 25 µM.
Consider `CC1Oc2c(cc(Cl)cc2S(=O)(=O)Nc2ccc(Cl)cc2)NC1=O` (centres unmarked) [BC19697], for which the IC50 was not below 25 µM.
For the compound `CC1Oc2cc(S(=O)(=O)Nc3ccc(F)c(F)c3)c(Cl)cc2NC1=O` (centres unmarked) [BC19698], the IC50 was not below 25 µM.
Next, `CC1Oc2c(cc(Cl)cc2S(=O)(=O)Nc2ccc(F)c(F)c2)NC1=O` (centres unmarked) [BC19699]: 1 to 25 µM.
The value for `Cc1ccc(NS(=O)(=O)c2cc3c(cc2Cl)NC(=O)C(C)O3)cc1F` (centres unmarked) [BC19700] was 1 to 25 µM; that for `Cc1ccc(NS(=O)(=O)c2cc(Cl)cc3c2OC(C)C(=O)N3)cc1F` (centres unmarked) [BC19701] was 1 to 25 µM.
The value for `CCc1ccc(NS(=O)(=O)c2cc3c(cc2Cl)NC(=O)C(C)O3)cc1` (centres unmarked) [BC19702] was not below 25 µM; that for `CCc1ccc(NS(=O)(=O)c2cc(Cl)cc3c2OC(C)C(=O)N3)cc1` (centres unmarked) [BC19703] was 1 to 25 µM; that for `CC1Oc2cc(S(=O)(=O)Nc3ccc(C(C)C)cc3)c(Cl)cc2NC1=O` (centres unmarked) [BC19704] was not below 25 µM.
Consider `CC1Oc2c(cc(Cl)cc2S(=O)(=O)Nc2ccc(C(C)C)cc2)NC1=O` (centres unmarked) [BC19705], for which the IC50 was 1 to 25 µM.
The value for `COc1ccc(NS(=O)(=O)c2cc3c(cc2Cl)NC(=O)C(C)O3)cc1` (centres unmarked) [BC19706] was not below 25 µM.
Next, `COc1ccc(NS(=O)(=O)c2cc(Cl)cc3c2OC(C)C(=O)N3)cc1` (centres unmarked) [BC19707]: not below 25 µM; `Cc1ccc(NS(=O)(=O)c2cc3c(cc2Cl)NC(=O)C(C)O3)cc1Cl` (centres unmarked) [BC19708]: not below 25 µM; `CC1Oc2cc(S(=O)(=O)Nc3ccc(F)cc3F)c(Cl)cc2NC1=O` (centres unmarked) [BC19709]: 1 to 25 µM.
The value for `CC1Oc2c(cc(Cl)cc2S(=O)(=O)Nc2ccc(F)cc2F)NC1=O` (centres unmarked) [BC19710] was not below 25 µM; that for `CCc1cccc(NS(=O)(=O)c2cc3c(cc2Cl)NC(=O)C(C)O3)c1` (centres unmarked) [BC19711] was not below 25 µM.
Turning to `CCc1cccc(NS(=O)(=O)c2cc(Cl)cc3c2OC(C)C(=O)N3)c1` (centres unmarked) [BC19712], the IC50 is not below 25 µM.
The value for `CC1Oc2cc(S(=O)(=O)Nc3cccc(F)c3)c(Cl)cc2NC1=O` (centres unmarked) [BC19713] was 1 to 25 µM; that for `CC1Oc2c(cc(Cl)cc2S(=O)(=O)Nc2cccc(F)c2)NC1=O` (centres unmarked) [BC19714] was not below 25 µM.
Consider `CC1Oc2cc(S(=O)(=O)Nc3cccc(Cl)c3)c(Cl)cc2NC1=O` (centres unmarked) [BC19715], for which the concentration for half-maximal inhibition (IC50) was less than 1 µM.
For the compound `CC1Oc2c(cc(Cl)cc2S(=O)(=O)Nc2cccc(Cl)c2)NC1=O` (centres unmarked) [BC19716], the 50% inhibitory concentration (IC50) was 1 to 25 µM.

For the origin of these results see US20240000806A1, “METHODS AND MATERIALS FOR INHIBITING CB1 ACTIVITY” (University of Pittsburgh - Of the Commonwealth System of …, priority 2020, published 2024).
